Experimental data from patent publication US6783949B1, “Processes for determining whether a test substance contains lipases or lipase inhibitors” (Aventis Pharma Deutschland GmbH, priority 1999, dated 2004).

Target: T1, HSL (Rattus norvegicus, UniProt P15304)
T1 construct: The partially purified HSL can be stored at −70° C. for 4 to 6 weeks; from tissue; host or cells: rat epididymal fat cells (male Wistar rats)
T1 sequence (P15304 1-768 isoform P15304-2): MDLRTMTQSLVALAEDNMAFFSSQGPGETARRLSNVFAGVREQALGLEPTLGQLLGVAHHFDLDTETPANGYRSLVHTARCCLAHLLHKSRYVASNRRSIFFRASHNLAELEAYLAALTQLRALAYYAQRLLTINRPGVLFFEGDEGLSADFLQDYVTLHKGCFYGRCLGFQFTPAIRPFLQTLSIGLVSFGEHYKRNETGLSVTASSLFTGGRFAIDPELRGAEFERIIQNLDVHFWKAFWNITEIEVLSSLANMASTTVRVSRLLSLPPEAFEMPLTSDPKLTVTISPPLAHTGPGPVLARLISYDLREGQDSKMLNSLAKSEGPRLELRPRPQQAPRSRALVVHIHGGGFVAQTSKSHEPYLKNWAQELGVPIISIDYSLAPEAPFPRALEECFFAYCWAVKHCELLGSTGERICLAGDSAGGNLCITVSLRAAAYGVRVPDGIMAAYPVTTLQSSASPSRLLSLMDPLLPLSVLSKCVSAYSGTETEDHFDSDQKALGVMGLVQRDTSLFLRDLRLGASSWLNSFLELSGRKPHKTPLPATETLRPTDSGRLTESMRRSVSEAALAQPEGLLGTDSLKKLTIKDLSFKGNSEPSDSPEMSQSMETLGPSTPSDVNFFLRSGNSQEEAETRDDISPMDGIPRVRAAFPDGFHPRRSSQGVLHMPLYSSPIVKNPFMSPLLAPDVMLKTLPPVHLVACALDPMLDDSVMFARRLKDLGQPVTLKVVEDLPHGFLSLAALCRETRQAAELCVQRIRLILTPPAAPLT
Assay: Indirect NAG assay (extinction increase at 481 nm)
Assay type: biochemical
Conditions: for Absorption change, Decrease, 550 nm / Absorption change, Increase, 481 nm / Increase in the absorption at 481 nm: NAG 0.05 mg/ml
Method: A typical reaction is carried out at 30° C. for 60 min, for example in 1.5 ml Eppendorf vessels or 96-hole plates. […] 180 μl of the substrate solution (20 μg/ml of phosphatidylcholine, 10 μg/ml of phosphatidylinositol, 50 μg/ml of NAG in assay buffer) are added. After a preincubation for 15 min at 30° C., 20 μl of HSL in assay buffer are pipetted in and the extinction is immediately measured (see above) at 481 nm in a cuvette photometer (0.5 ml cuvette) or microtiter plate reader. After a certain incubation time, which is variable and depends on the chosen enzyme concentration and can be between 2 and 240 minutes, in this case incubation at 30° C. for 60 min, the extinction is measured again. The increase in the extinction in the yellow region, in this case at 481 nm, is a measure of the enzyme activity.
Isolated rat fat cells are obtained from epididymal fatty tissue from untreated male rats (Wistar, 220-250 g) by collagenase treatment according to published processes. The fat cells from 10 rats are washed three times by flotation with 50 ml each of homogenization buffer ([…], pH 7.4, 0.25 M sucrose, 1 mM ethylenediamine-N,N,N′,N′-tetraacetic acid (EDTA), 1 mM dithiothreitol (DTT), 10 μg/ml of leupeptin, 10 μg/ml of antipain, 20 μg/ml of pepstatin) and finally taken up in 10 ml of homogenization buffer. The fat cells are homogenized in a Teflon-in-glass homogenizer (Braun-Melsungen) by 10 strokes at 1500 rpm and 15° C. The homogenizate is centrifuged (Sorvall SM24 tubes, 5000 rpm, 10 min, 4° C.). The […] between the overlying fatty layer and the pellet is removed and the centrifugation is repeated. The […] resulting from this is centrifuged again (Sorvall SM24 tubes, 20,000 rpm, 45 min, 4° C.). […] After incubation for 60 min at 4° C. (shake at intervals of 15 min), the batch is centrifuged (Sorvall SM24 tubes, 3000 rpm, 10 min, 4° C.). The supernatant is brought to pH 5.2 by addition of glacial acetic acid and incubated at 4° C. for 30 min. […] The suspension is dialyzed overnight at 4° C. against 25 mM TRIS/HCl, pH 7.4, 50% glycerol, 1 mM DTT, and 10 μg/ml of leupeptin, pepstatin, and antipain and then applied to a hydroxylapatite column (0.1 g per 1 ml of suspension, equilibrated with 10 mM potassium phosphate, pH 7.0, 30% glycerol, 1 mM DTT). The column is washed with four volumes of equilibration buffer at a flow rate of 20 to 30 ml/h. The HSL is eluted with a volume of equilibration buffer which contains 0.5 M potassium phosphate, then dialyzed (see above) and concentrated 5 to 10 times by ultrafiltration (Amicon Diaflo PM 10 filter) at 4° C. The partially purified HSL can be stored at −70° C. for 4 to 6 weeks.
6 mg of phosphatidylcholine and 6 mg of phosphatidylinositol are dissolved in 1 ml of chloroform each. 10 mg of NAG are dissolved in 1 ml of chloroform. […] The chloroform (225 μl total volume) is completely removed by overblowing with a stream of N2. The dried substrate can be stored at 4° C. for up to three days. For the preparation of the phospholipid vesicles/micelles having intercalated NAG (on the test day), the dried substrate is taken up in 20 ml of assay buffer (25 mM TRIS/HCl, pH 7.4; 150 mM NaCl) and two ultrasonic treatments with an ultrasonic probe (Branson Sonifier type 11, standard microtip): 1st treatment setting 2, 2×1 min, in between in each case 1 min on ice; 2nd treatment setting 4, 2×1 min, in between in each case 1 min on ice. […] Before use as a substrate (within the next 2 h), the solution is additionally incubated on ice for 15 min.
The assay is carried out at 30° C. for 60 min in 1.5 ml Eppendorf vessels or 96-hole plates.

O=C(CCCCCCCCCCCNc1ccc([N+](=O)[O-])c2nonc12)OCC(O)CO (stereo not drawn) [Compound (3)]
Signal strength (20 μg of protein, 0.05 mg/ml of NAG): 0.6 to 0.7 OD
Absorption change, Decrease, 550 nm (HSL 1 μg, 60 min): 866 ± 94 arb. units
Absorption change, Increase, 481 nm (HSL 1 μg, 60 min): 156 ± 21 arb. units
Absorption change, Decrease, 550 nm (HSL 2 μg, 60 min): 841 ± 78 arb. units
Absorption change, Increase, 481 nm (HSL 2 μg, 60 min): 347 ± 40 arb. units
Increase in the absorption at 481 nm (HSL 5 μg, 1 min): 12 ± 2 arb. units
Increase in the absorption at 481 nm (HSL 5 μg, 2 min): 23 ± 4 arb. units
Increase in the absorption at 481 nm (HSL 5 μg, 5 min): 45 ± 9 arb. units
Increase in the absorption at 481 nm (HSL 5 μg, 10 min): 105 ± 18 arb. units
Increase in the absorption at 481 nm (HSL 5 μg, 15 min): 155 ± 20 arb. units
Increase in the absorption at 481 nm (HSL 5 μg, 20 min): 219 ± 31 arb. units
Increase in the absorption at 481 nm (HSL 5 μg, 30 min): 295 ± 47 arb. units
Increase in the absorption at 481 nm (HSL 5 μg, 45 min): 453 ± 52 arb. units
Absorption change, Decrease, 550 nm (HSL 5 μg, 60 min): 779 ± 82 arb. units
Absorption change, Increase, 481 nm (HSL 5 μg, 60 min): 791 ± 88 arb. units
Increase in the absorption at 481 nm (HSL 5 μg, 60 min): 677 ± 70 arb. units
Increase in the absorption at 481 nm (HSL 5 μg, 75 min): 831 ± 92 arb. units
Increase in the absorption at 481 nm (HSL 5 μg, 90 min): 995 ± 82 arb. units
Increase in the absorption at 481 nm (HSL 5 μg, 120 min): 1455 ± 102 arb. units
Increase in the absorption at 481 nm (HSL 5 μg, 180 min): 1937 ± 121 arb. units
Absorption change, Decrease, 550 nm (HSL 7.5 μg, 60 min): 759 ± 69 arb. units
Absorption change, Increase, 481 nm (HSL 7.5 μg, 60 min): 1066 ± 120 arb. units
Increase in the absorption at 481 nm (HSL 10 μg, 1 min): 19 ± 4 arb. units
Increase in the absorption at 481 nm (HSL 10 μg, 2 min): 51 ± 9 arb. units
Increase in the absorption at 481 nm (HSL 10 μg, 5 min): 102 ± 19 arb. units
Increase in the absorption at 481 nm (HSL 10 μg, 10 min): 185 ± 26 arb. units
Increase in the absorption at 481 nm (HSL 10 μg, 15 min): 288 ± 39 arb. units
Increase in the absorption at 481 nm (HSL 10 μg, 20 min): 395 ± 36 arb. units
Increase in the absorption at 481 nm (HSL 10 μg, 30 min): 517 ± 67 arb. units
Increase in the absorption at 481 nm (HSL 10 μg, 45 min): 830 ± 57 arb. units
Absorption change, Decrease, 550 nm (HSL 10 μg, 60 min): 650 ± 61 arb. units
Absorption change, Increase, 481 nm (HSL 10 μg, 60 min): 1255 ± 141 arb. units
Increase in the absorption at 481 nm (HSL 10 μg, 60 min): 1179 ± 110 arb. units
Increase in the absorption at 481 nm (HSL 10 μg, 75 min): 1487 ± 104 arb. units
Increase in the absorption at 481 nm (HSL 10 μg, 90 min): 1844 ± 130 arb. units
Increase in the absorption at 481 nm (HSL 10 μg, 120 min): 2745 ± 195 arb. units
Increase in the absorption at 481 nm (HSL 10 μg, 180 min): 3521 ± 254 arb. units
Absorption change, Decrease, 550 nm (HSL 15 μg, 60 min): 540 ± 55 arb. units
Absorption change, Increase, 481 nm (HSL 15 μg, 60 min): 2351 ± 205 arb. units
Increase in the absorption at 481 nm (HSL 20 μg, 1 min): 5 ± 7 arb. units
Increase in the absorption at 481 nm (HSL 20 μg, 2 min): 78 ± 12 arb. units
Increase in the absorption at 481 nm (HSL 20 μg, 5 min): 193 ± 36 arb. units
Increase in the absorption at 481 nm (HSL 20 μg, 10 min): 423 ± 62 arb. units
Increase in the absorption at 481 nm (HSL 20 μg, 15 min): 617 ± 70 arb. units
Increase in the absorption at 481 nm (HSL 20 μg, 20 min): 865 ± 93 arb. units
Increase in the absorption at 481 nm (HSL 20 μg, 30 min): 1143 ± 216 arb. units
Increase in the absorption at 481 nm (HSL 20 μg, 45 min): 1877 ± 206 arb. units
Absorption change, Decrease, 550 nm (HSL 20 μg, 60 min): 287 ± 51 arb. units
Absorption change, Increase, 481 nm (HSL 20 μg, 60 min): 2867 ± 199 arb. units
Increase in the absorption at 481 nm (HSL 20 μg, 60 min): 2510 ± 295 arb. units
Increase in the absorption at 481 nm (HSL 20 μg, 75 min): 3067 ± 310 arb. units
Increase in the absorption at 481 nm (HSL 20 μg, 90 min): 3527 ± 188 arb. units
Increase in the absorption at 481 nm (HSL 20 μg, 120 min): 4941 ± 410 arb. units
Increase in the absorption at 481 nm (HSL 20 μg, 180 min): 5712 ± 399 arb. units
Absorption change, Decrease, 550 nm (HSL 25 μg, 60 min): 198 ± 44 arb. units
Absorption change, Increase, 481 nm (HSL 25 μg, 60 min): 3428 ± 270 arb. units
Absorption change, Decrease, 550 nm (HSL 30 μg, 60 min): 115 ± 35 arb. units
Absorption change, Increase, 481 nm (HSL 30 μg, 60 min): 3973 ± 244 arb. units
Increase in the absorption at 481 nm (HSL 40 μg, 1 min): 91 ± 14 arb. units
Increase in the absorption at 481 nm (HSL 40 μg, 2 min): 89 ± 32 arb. units
Increase in the absorption at 481 nm (HSL 40 μg, 5 min): 395 ± 62 arb. units
Increase in the absorption at 481 nm (HSL 40 μg, 10 min): 784 ± 88 arb. units
Increase in the absorption at 481 nm (HSL 40 μg, 15 min): 1060 ± 144 arb. units
